Our source for the IC50 and EC50 values is patent US7491794B2, “Macrocyclic compounds as inhibitors of viral replication” (Intermune, Inc., priority 2003, dated 2009).

The structures appear in SMILES notation. Read-outs that look alike come from different tables or passages of the source.

By IC50 is commonly meant the point on the concentration scale where inhibition reaches its midpoint. A word on the EC50: it is the concentration giving half of the maximal effect.

One test deals with T1, NS3-NS4A protease (Hepatitis C virus genotype 1a, UniProt P27958).
T1 construct: Recombinant E. coli or Baculovirus full-length NS3 was diluted to 3.33 μM with assay buffer; made in house; host or cells: E. coli or baculovirus (BV) system
Nature of the test: NS3-NS4A protease assay (NS3 inhibition assay, RETS1 substrate), Section B. Type of test: biochemical. In outline: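 Kinetic fluorescence read (335 nm excitation, 495 nm emission, 30 min) of RETS1 cleavage by NS3/NS4A-2 complex, 2 nM E. coli or 3 nM baculovirus NS3, after 10 min room-temperature compound pre-incubation. Four-parameter-fit IC50s converted to Ki by Cheng–Prusoff, Ki=IC50/(1+[S]/Km).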

For test [1], the system named is HCV sub-genomic replicon, GS4.3. In words: Quantitation by ELISA of NPTII in the HCV sub-genomic replicon, GS4.3, Section B. Type of test: cell-based. Particulars: Hepatitis C virus, read-out: Replicon EC50. In outline: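 NPTII marker protein in lysates was quantified by ELISA read at 450 nm after 72 h inhibitor exposure (3-fold series, final DMSO 1%, G418-free medium) of HuH-7 cells stably harbouring the subgenomic HCV replicon. Values relative to DMSO-treated controls; 4-parameter curves gave EC50.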

T1 sequence (P27958 1027-1657): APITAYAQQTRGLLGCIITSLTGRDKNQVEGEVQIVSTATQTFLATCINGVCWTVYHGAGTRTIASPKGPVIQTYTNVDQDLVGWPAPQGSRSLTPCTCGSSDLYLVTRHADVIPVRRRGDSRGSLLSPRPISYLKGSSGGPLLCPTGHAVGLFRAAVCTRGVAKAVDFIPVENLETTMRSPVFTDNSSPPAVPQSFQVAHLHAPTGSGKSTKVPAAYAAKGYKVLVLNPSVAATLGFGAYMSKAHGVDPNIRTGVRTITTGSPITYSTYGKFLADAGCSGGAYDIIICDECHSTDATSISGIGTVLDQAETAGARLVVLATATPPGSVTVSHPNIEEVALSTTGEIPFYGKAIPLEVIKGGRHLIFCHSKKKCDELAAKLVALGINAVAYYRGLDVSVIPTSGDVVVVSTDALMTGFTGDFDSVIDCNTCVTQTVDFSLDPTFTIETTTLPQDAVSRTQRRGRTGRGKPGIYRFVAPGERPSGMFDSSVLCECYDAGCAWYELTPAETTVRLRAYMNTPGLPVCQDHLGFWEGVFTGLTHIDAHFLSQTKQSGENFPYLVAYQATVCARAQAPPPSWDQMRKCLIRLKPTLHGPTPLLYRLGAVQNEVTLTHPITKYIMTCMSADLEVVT

In the case of `CC(C)[C@@H](NC(=O)c1ccc(N(C)C)nc1)C(=O)N[C@H]1CCCCC/C=C\[C@@H]2C[C@@]2(C(=O)O)NC(=O)[C@@H]2C[C@@H](OC(=O)N3CCc4ccccc4C3)CN2C1=O` [AR00304072, (1S,4R,6S,14S,18R)-18-(3,4-Dihydro-1H-isoquinoline-2-carbonyloxy)-14-{2-[(6-dimethylamino-pyridine-3-carbonyl)-amino]-3-methyl-butyrylamino}-2,15-dioxo-3,16-diaza-tricyclo[14.3.0.0^4,6]nonadec-7-ene-4-carboxylic acid], on NS3-NS4A protease, the IC50 was less than 1000 nM. For the same compound, the EC50 in test [1] (72 h) was less than 10000 nM.

Regarding `O=C(N[C@H]1CCCCC/C=C\[C@@H]2C[C@@]2(C(=O)O)NC(=O)[C@@H]2C[C@@H](OC(=O)N3Cc4ccccc4C3)CN2C1=O)OC1CCOCC1` [AR00320077, (1S,4R,6S,14S,18R)-18-(1,3-Dihydro-isoindole-2-carbonyloxy)-2,15-dioxo-14-(tetrahydro-pyran-4-yloxycarbonylamino)-3,16-diaza-tricyclo[14.3.0.0^4,6]nonadec-7-ene-4-carboxylic acid], at NS3-NS4A protease (read-out: NS3-NS4A IC50), the IC50 is less than 1000 nM. In test [1] (GS4.3 cells, 72 h incubation), the EC50 is less than 10000 nM.

As for `CC(C)(C)OC(=O)N[C@H]1CCCCC/C=C\[C@@H]2C[C@@]2(C(=O)NS(=O)(=O)C2CC2)NC(=O)[C@@H]2C[C@@H](OC(=O)N3CCc4ccccc4C3)CN2C1=O` [AR00261408, (1S,4R,6S,14S,18R)-3,4-Dihydro-1H-isoquinoline-2-carboxylic acid 14-tert-butoxycarbonylamino-4-cyclopropanesulfonylaminocarbonyl-2,15-dioxo-3,16-diaza-tricyclo[14.3.0.0^4,6]nonadec-7-en-18-yl ester], the IC50 at NS3-NS4A protease (read-out: NS3-NS4A IC50) was less than 100 nM. The EC50 in test [1] (GS4.3 cells, 72 h incubation) is less than 100 nM.

Consider `C[C@@H]1CN(C(=O)O[C@@H]2C[C@H]3C(=O)N[C@]4(C(=O)O)C[C@H]4/C=C\CCCCC[C@H](NC(=O)OC(C)(C)C)C(=O)N3C2)Cc2ccccc21` [AR00320123, (1S,4R,6S,14S,18R)-14-tert-Butoxycarbonylamino-18-(4S-methyl-3,4-dihydro-1H-isoquinoline-2-carbonyloxy)-2,15-dioxo-3,16-diaza-tricyclo[14.3.0.0^4,6]nonadec-7-ene-4-carboxylic acid], for which the IC50 at NS3-NS4A protease (read-out: NS3-NS4A IC50) was less than 1000 nM. Also, the EC50 in test [1] (GS4.3 cells, 72 h incubation) is less than 10000 nM.

In the case of `CC(C)(C)OC(=O)N[C@H]1CCCCC/C=C\[C@@H]2C[C@@]2(C(=O)NS(=O)(=O)c2cccs2)NC(=O)[C@@H]2C[C@@H](OC(=O)N3Cc4ccccc4C3)CN2C1=O` [AR00365427, (1S,4R,6S,14S,18R)-1,3-Dihydro-isoindole-2-carboxylic acid 14-tert-butoxycarbonylamino-2,15-dioxo-4-(thiophene-2-sulfonylaminocarbonyl)-3,16-diaza-tricyclo[14.3.0.0^4,6]nonadec-7-en-18-yl ester], the IC50 on NS3-NS4A protease (read-out: NS3-NS4A IC50) was less than 100 nM. In test [1] (GS4.3 cells, 72 h incubation), the EC50 is less than 100 nM.

In the case of `Cc1nc(-c2ccc3c(c2)CN(C(=O)O[C@@H]2C[C@H]4C(=O)N[C@]5(C(=O)NS(=O)(=O)C6CC6)C[C@H]5/C=C\CCCCC[C@H](NC(=O)OC(C)(C)C)C(=O)N4C2)C3)cs1` [AR00364989, (1S,4R,6S,14S,18R)-5-(2-Methyl-thiazol-4-yl)-1,3-dihydro-isoindole-2-carboxylic acid 14-tert-butoxycarbonylamino-4-cyclopropanesulfonylaminocarbonyl-2,15-dioxo-3,16-diaza-tricyclo[14.3.0.0^4,6]nonadec-7-en-18-yl ester], at NS3-NS4A protease (read-out: NS3-NS4A IC50), the concentration for half-maximal inhibition (IC50) is less than 100 nM. Moreover, in test [1] (GS4.3 cells, 72 h incubation), the EC50 is less than 100 nM.

Consider `COc1ccc2c(c1)CN(C(=O)O[C@@H]1C[C@H]3C(=O)N[C@]4(C(=O)NS(=O)(=O)C5CC5)C[C@H]4/C=C\CCCCC[C@H](NC(=O)OC(C)(C)C)C(=O)N3C1)C2` [AR00334314, (1S,4R,6S,14S,18R)-5-Methoxy-1,3-dihydro-isoindole-2-carboxylic acid 14-tert-butoxycarbonylamino-4-cyclopropanesulfonylaminocarbonyl-2,15-dioxo-3,16-diaza-tricyclo[14.3.0.0^4,6]nonadec-7-en-18-yl ester], for which the IC50 on NS3-NS4A protease (read-out: NS3-NS4A IC50) is less than 100 nM. Moreover, the EC50 in test [1] (GS4.3 cells, 72 h incubation) is less than 100 nM.

Take `O=C(N[C@H]1CCCCC/C=C\[C@@H]2C[C@@]2(C(=O)NS(=O)(=O)C2CC2)NC(=O)[C@@H]2C[C@@H](OC(=O)N3CCc4ccccc4C3)CN2C1=O)OC1CCCC1` [AR00282131, (1S,4R,6S,14S,18R)-3,4-Dihydro-1H-isoquinoline-2-carboxylic acid 14-cyclopentyloxycarbonylamino-4-cyclopropanesulfonylaminocarbonyl-2,15-dioxo-3,16-diaza-tricyclo[14.3.0.0^4,6]nonadec-7-en-18-yl ester]: the IC50 on NS3-NS4A protease (read-out: NS3-NS4A IC50) is less than 100 nM. The EC50 in test [1] (GS4.3 cells, 72 h incubation) is less than 100 nM.

For `CC(C)(C)OC(=O)N[C@H]1CCCCC/C=C\[C@@H]2C[C@@]2(C(=O)NS(C)(=O)=O)NC(=O)[C@@H]2C[C@@H](OC(=O)N3CCc4ccccc4C3)CN2C1=O` [AR00254906, (1S,4R,6S,14S,18R)-3,4-Dihydro-1H-isoquinoline-2-carboxylic acid 14-tert-butoxycarbonylamino-4-methanesulfonylaminocarbonyl-2,15-dioxo-3,16-diaza-tricyclo[14.3.0.0^4,6]nonadec-7-en-18-yl ester], the IC50 at NS3-NS4A protease (read-out: NS3-NS4A IC50) was less than 100 nM. In addition, the EC50 in test [1] (GS4.3 cells, 72 h incubation) was less than 1000 nM.

Regarding `CC(C)(C)OC(=O)N[C@H]1CCCCC/C=C\[C@@H]2C[C@@]2(C(=O)NS(=O)(=O)C2CC2)NC(=O)[C@@H]2C[C@@H](OC(=O)N3Cc4ccc(OCCOC(=O)N5CCOCC5)cc4C3)CN2C1=O` [AR00345032, (1S,4R,6S,14S,18R)-5-[2-(Morpholine-4-carbonyloxy)-ethoxy]-1,3-dihydro-isoindole-2-carboxylic acid 14-tert-butoxycarbonylamino-4-cyclopropanesulfonylaminocarbonyl-2,15-dioxo-3,16-diaza-tricyclo[14.3.0.0^4,6]nonadec-7-en-18-yl ester], the IC50 at NS3-NS4A protease (read-out: NS3-NS4A IC50) was less than 100 nM. The EC50 in test [1] (GS4.3 cells, 72 h incubation) is less than 100 nM.

`CC(C)(C)OC(=O)N[C@H]1CCCCCCCC2C[C@@]2(C(=O)NS(=O)(=O)C2CC2)NC(=O)[C@@H]2C[C@@H](OC(=O)N3Cc4ccccc4C3)CN2C1=O` (stereo in doubt) [AR00333833, (1S,4R,6S,14S,18R)-1,3-Dihydro-isoindole-2-carboxylic acid 14-tert-butoxycarbonylamino-4-cyclopropanesulfonylaminocarbonyl-2,15-dioxo-3,16-diaza-tricyclo[14.3.0.0^4,6]nonadec-18-yl ester]: the concentration for half-maximal inhibition (IC50) on NS3-NS4A protease (read-out: NS3-NS4A IC50) was less than 100 nM. The EC50 in test [1] (GS4.3 cells, 72 h incubation) was less than 100 nM.

As for `O=C(N[C@H]1CCCCC/C=C\[C@@H]2C[C@@]2(C(=O)NS(=O)(=O)C2CC2)NC(=O)[C@@H]2C[C@@H](OC(=O)N3CCc4ccccc4C3)CN2C1=O)O[C@H]1CCOC1` [AR00304162, (1S,4R,6S,14S,18R)-3,4-Dihydro-1H-isoquinoline-2-carboxylic acid 4-cyclopropanesulfonylaminocarbonyl-2,15-dioxo-14-(tetrahydro-furan-3-yloxycarbonylamino)-3,16-diaza-tricyclo[14.3.0.0^4,6]nonadec-7-en-18-yl ester], on NS3-NS4A protease (read-out: NS3-NS4A IC50), the IC50 is less than 100 nM. For the same compound, in test [1] (GS4.3 cells, 72 h incubation), the concentration giving a half-maximal response (EC50) is less than 100 nM.

As to `CC(C)(C)OC(=O)N[C@H]1CCCCC/C=C\[C@@H]2C[C@@]2(C(=O)NS(=O)(=O)c2cc(C(=O)O)c(Cl)cc2F)NC(=O)[C@@H]2C[C@@H](OC(=O)N3Cc4ccccc4C3)CN2C1=O` [AR00365426, (1S,4R,6S,14S,18R)-1,3-Dihydro-isoindole-2-carboxylic acid 14-tert-butoxycarbonylamino-4-(5-carboxy-4-chloro-2-fluoro-benzenesulfonylaminocarbonyl)-2,15-dioxo-3,16-diaza-tricyclo[14.3.0.0^4,6]nonadec-7-en-18-yl ester], the IC50 at NS3-NS4A protease (read-out: NS3-NS4A IC50) was less than 100 nM. For the same compound, the EC50 in test [1] (GS4.3 cells, 72 h incubation) is less than 10000 nM.

Consider `COCC1c2ccc(OC)cc2CCN1C(=O)O[C@@H]1CC2C(=O)N[C@]3(C(=O)NS(=O)(=O)C4CC4)C[C@H]3/C=C\CCCCC[C@H](NC(=O)OC(C)(C)C)C(=O)N2C1` (stereo partly drawn) [AR00334339, (1S,4R,6S,14S,18R)-6-Methoxy-1-methoxymethyl-3,4-dihydro-1H-isoquinoline-2-carboxylic acid 14-tert-butoxycarbonylamino-4-cyclopropanesulfonylaminocarbonyl-2,15-dioxo-3,16-diaza-tricyclo[14.3.0.0^4,6]nonadec-7-en-18-yl ester], for which the IC50 on NS3-NS4A protease (read-out: NS3-NS4A IC50) is less than 100 nM. Further, the EC50 in test [1] (GS4.3 cells, 72 h incubation) was less than 100 nM.

In the case of `COCC1c2cccc(F)c2CCN1C(=O)O[C@@H]1CC2C(=O)N[C@]3(C(=O)O)C[C@H]3/C=C\CCCCC[C@H](NC(=O)OC3CCCC3)C(=O)N2C1` (stereo partly drawn) [AR00365381, (1S,4R,6S,14S,18R)-14-Cyclopentyloxycarbonylamino-18-(5-fluoro-1-methoxymethyl-3,4-dihydro-1H-isoquinoline-2-carbonyloxy)-2,15-dioxo-3,16-diaza-tricyclo[14.3.0.0^4,6]nonadec-7-ene-4-carboxylic acid], the IC50 on NS3-NS4A protease (read-out: NS3-NS4A IC50) was less than 1000 nM. Moreover, the EC50 in test [1] (GS4.3 cells, 72 h incubation) is less than 1000 nM.

In the case of `CC(C)(C)OC(=O)N[C@H]1CCCCC/C=C\[C@@H]2C[C@@]2(C(=O)NS(=O)(=O)C2CC2)NC(=O)[C@@H]2C[C@@H](OC(=O)N3Cc4ccc(OCCn5cccn5)cc4C3)CN2C1=O` [AR00364924, (1S,4R,6S,14S,18R)-5-(2-Pyrazol-1-yl-ethoxy)-1,3-dihydro-isoindole-2-carboxylic acid 14-tert-butoxycarbonylamino-4-cyclopropanesulfonylaminocarbonyl-2,15-dioxo-3,16-diaza-tricyclo[14.3.0.0^4,6]nonadec-7-en-18-yl ester], the IC50 on NS3-NS4A protease (read-out: NS3-NS4A IC50) was less than 100 nM. The EC50 in test [1] (GS4.3 cells, 72 h incubation) was less than 100 nM.
